Assay results as given in patent US5942522A, “Antiviral compounds and antihypertensive compounds” (Schering Corporation, priority 1997, dated 1999).
Values after ≈ are worked out from the molar mass of the structure shown. Where two headings read alike, the source gives them in different places.

Legend:
HSV-2 (strain MS) = test: HSV-β-Gal assay: transient expression of beta galactosidase in transfected HeLa cells superinfected with HSV-2; format: cell-based
Experimental: (§1) HeLa and Vero cell cultures were maintained in Eagles Minimal Essential Medium (EMEM) which was supplemented with glutamine, penicillin, streptomycin and 10% fetal calf serum (10% EMEM). Stock cultures of HSV-2 (strain MS available from ATCC VR-540) were grown in and harvested from Vero cells. Viral stocks were titered in Vero cells according to established procedures.
Plasmid pON 245^ori- contains the promoter of the HSV-1 thymidine kinase (tk) gene located immediately 5'of the E. coli lac Z gene. In this arrangement, the tk promoter controls transcription from the bacterial gene in transient expression assays. Additionally, an SV40 polyadenylation signal is present at the 3' end of the lac Z gene to allow for the efficient translation of the mRNA in eucaryotic cells. The expression of beta galactosidase in a transient assay using pON 245^ori- is dependent upon superinfection of the transfected cells with HSV. […] For example see U.S. application Ser. No. 07/435,491 filed Sep. 5, 1989, the disclosure of which is incorporated herein by reference thereto.
HeLa cells were seeded into 96 well microtiter plates and allowed to grow to 80% confluency (approximately 35000 cells/well). One half microgram of plasmid pON 245^ori- DNA was introduced into the cells of each well by the […] precipitation technique (Grahman and Van der Eb, 1973). Four to six hours later, the cells were rinsed with hank's Balanced Salt Solution (HBSS), overlaid with 10% EMEM and incubated at 37° C. At 24 hours post-transfection, cells were rinsed, overlaid with 10% EMEM again and re-incubated at 37° C. At 48 hours post-transfection, cells were rinsed and overlaid with either EMEM containing 2% fetal calf serum (2% EMEM), 2% EMEM containing HSV-2 (strain MS, Multiplicity of Infection [moi]=5 pfu/cell) or 2% EMEM containing HSV-2 and the appropriate concentration of Schering compound to be tested. Twenty-four hours later, the cells were harvested and assayed for beta galactosidase activity as described below.
All determinations of beta galactosidase activity were performed in 96 well microtiter plates. The intracellular level of beta galactosidase activity in each well was determined from cell lysates of the monolayer cultures. Aliquots were assayed by incubation in the presence of beta galactosidase substrate, 4-methylumbelliferyl-β-D-galactoside (MUG, 125 ug/ml, Sigma), for 2 hours. The generation of fluorescent product was quantified on a Microfluor microfluorimeter (Dynatech) after addition of 0.1M glycine, pH 10.3 (Spaete and Mocarski, 1985). The inhibitory activity of a compound was plotted versus the concentration and an IC50 value (the concentration of compound required to reduce beta glactosidase expression by 50%) was obtained for each compound tested.

[1] = Compound toxicity assay: inhibition of HeLa cell translation (3H-leucine incorporation); format: cell-based; conditions: human; Table II; HeLa cells; read-out: Cytotoxicity 3H-LEU assay IC50
Experimental: as §1
HeLa cells were treated with inhibitory compound for 24 hours, after which levels of translational activity were assayed.
For assay of translational activity, HeLa cultures were grown to 80% confluency in 96 well microtiter plates, treated with appropriate concentrations of compound in 2% EMEM during an overnight incubation at 37° C., then rinsed with HBSS and overlaid with […] of 2% EMEM containing 8 uCi of tritiated leucine (^3 H-LEU, […], Amersham Corp., Arlington Heights, Ill.). After a 1 hour incubation at 36.5°C., the cells were rinsed twice with phosphate buffered saline (PBS) and lysed in 400 ul/well of 1×PBS, 0.5% sodium dodecyl sulphate (SDS). After a 10 min incubation at 36.5° C., the contents of the well were transferred to a well in a Millititer HA microfiltration plate (Millipore Corp., Bedford, Mass.). The TCA insoluble proteins were precipitated onto the filter disc by a 10 min fixation with 5% TCA, followed by filtration under vacuum and three 10 minute rinses with 95% ethanol. The filters were dried at room temperature, cut from the milltitier plate and transferred to scintillation vials. TCA precipitable counts were assayed in 5 ml of Scintisol (Isolab, Akron, Ohio). The inhibitory activity of a compound was plotted versus the concentration and an IC50 value (that concentration of the compound required to decrease cellular translational activity by 50%) was derived for each compound.

[2] = Human alphaherpesvirus 2, Table II, HeLa cells, HSV-2 strain MS, 24 h, read-out: Anti-HSV activity, HSV-β-GAL assay IC50
[3] = Human alphaherpesvirus 2, HeLa, 24 h, read-out: Anti-HSV activity, HSV-β-GAL assay IC50
[4] = Human alphaherpesvirus 2, Table II^1, HeLa cells, HSV-2 strain MS, 24 h, read-out: Anti-HSV activity HSV-β-Gal assay IC50
[5] = Human alphaherpesvirus 2, HeLa, read-out: HSV: antiHSV activity, HSVβ-Gal Assay, IC50

| Molecule | IC50 (HSV-2 (strain MS); [2]) [µg/mL] | CC50 at 24 h [1] [µg/mL] | further results |
| --- | --- | --- | --- |
| 4-Amino-7-Acetyloxy-8-Methyl-Benzopyran-2-one [Compound 68] |  |  | Anti-HSV activity HSV-β-Gal assay IC50 (HSV-2 (strain MS); Table II^1, HeLa cells, HSV-2 strain MS, 24 h): 30.0 µg/mL |
| COc1c(SC)c(=O)n(Cc2ccc(O[Si](C)(C)C(C)(C)C)cc2)c2cc(C)c(C)cc12 [Compound 1] | 1.5 (≈ 3.19 µM) | 1.8 (≈ 3.83 µM) |  |
| CCCCCCn1c(=O)c(C2NCCS2)c(OC)c2ccccc21 (centres unmarked) [Compound 2, 1-Hexyl-3-(2-thiazolidinyl)-4-methoxy-2(1H)-Quinolinone] |  | 32 (≈ 92.4 µM) | IC50 (HSV-2 (strain MS); [3]): 2 µg/mL (≈ 5.77 µM) |
| CCCCCCn1c(=O)c(C=NOC)c(OC)c2ccccc21 [Compound 3, 1-Hexyl-3-Methoximinomethyl-4-Methoxy-2(1H)-Quinolinone] | 2.5 (≈ 7.9 µM) | 12.6 (≈ 39.8 µM) |  |
| CCCCCCn1c(=O)c(C=NO)c(OC)c2cc(C)ccc21 [Compound 4, 1-Hexyl-3-Oximinomethyl-4-Methoxy-6-Methyl-2(1H )-Quinolinone] |  | 100 (≈ 316 µM) | IC50 (HSV-2 (strain MS); [3]): 3 µg/mL (≈ 9.48 µM) |
| Cc1cc2c(OCCN(C)C)c(SCO)c(=O)n(Cc3ccc(O[Si](C)(C)C(C)(C)C)cc3)c2cc1C [Compound 5] | 3 (≈ 5.53 µM) | 15 (≈ 27.6 µM) |  |
| CCCCCCn1c(=O)c(Cn2ncnn2)c(OC)c2ccccc21 [Compound 6, 1-hexyl-3-(2-tetrazolylmethyl)-4-methoxy-2(1H)-quinolinone] |  | 7 (≈ 20.5 µM) | IC50 (HSV-2 (strain MS); [3]): 3 µg/mL (≈ 8.79 µM) |
| CCCCCCn1c(=O)c(C2NCCS2)c(OC)c2cc(C)ccc21 (centres unmarked) [Compound 8, 1-Hexyl-3-(2-thiazolidinyl)-4-methoxy-6-methyl-2(1H)-Quinolinone] |  | 3 (≈ 8.32 µM) | IC50 (HSV-2 (strain MS); [3]): < 3 µg/mL |
| CCCCCCn1c(=O)c(Cn2cncn2)c(OC)c2cc(C)ccc21 [Compound 10, 1-Hexyl-3-(1,2,4-Triazol-1-ylmethyl)-4-Methoxy-6-Methyl-2(1H)-Quinolinone] | 4 (≈ 11.3 µM) | > 100 |  |
| CCCCCCn1c(=O)c(Cn2ccnc2)c(OC)c2cc(C)ccc21 [Compound 11, 1-Hexyl-3-(1H-imidazol-1-ylmethyl)-4-methoxy-6-methyl-2(1H)-quinolinone] | 4.5 (≈ 12.7 µM) | 17 (≈ 48.1 µM) |  |
| CCCCCCn1c(=O)c(Cn2cnnc2)c(OC)c2cc(C)ccc21 [Compound 12, 1-hexyl-3-(1,2,4-triazol-4-ylmethyl)-4-methoxy-6-methyl-2(1H)-quinolinone] | 4.5 (≈ 12.7 µM) | 32 (≈ 90.3 µM) |  |
| CCCCCCn1c(=O)c(Cn2ncnn2)c(OC)c2cc(C)ccc21 [Compound 13, 1-hexyl-3-(2-tetrazolylmethyl)-4-methoxy-6-methyl-2(1H)-quinolinone] | 5 (≈ 14.1 µM) | 17 (≈ 47.8 µM) |  |
| CCCCCCn1c(=O)c(Cn2cnnn2)c(OC)c2cc(C)ccc21 [Compound 14, 1-Hexyl-3-(1-Tetrazolylmethyl)-4-Methoxy-6-Methyl-2(1H)-Quinolinone] | 5 (≈ 14.1 µM) | > 100 |  |
| CCCCCCn1c(=O)c(CBr)c(OC)c2ccccc21 [Compound 15, 1-Hexyl-3-Bromomethyl-4-Methoxy-2(1H)-Quinolinone] | 5 (≈ 14.2 µM) | 25 (≈ 71 µM) |  |
| CCCCCCn1c(=O)c(Cn2cncn2)c(OC)c2ccccc21 [Compound 16, 1-Hexyl-3(1,2,4-Triazol-1-ylmethyl)-4-Methoxy-2(1H)-Quinolinone] | 5 (≈ 14.7 µM) | 18 (≈ 52.9 µM) |  |
| CCCCCCn1c(=O)c(C=NO)c(OC)c2ccccc21 [Compound 17, 1-Hexyl-3-Hydroximinomethyl-4-Methoxy-2(1H)-Quinolinone] | 6 (≈ 19.8 µM) | 25 (≈ 82.7 µM) |  |
| CCCCCCn1c(=O)c(Cn2cnnn2)c(OC)c2ccccc21 [Compound 18, 1-Hexyl-3-(1-tetrazolymethyl)-4-methoxy-2(1H)-quinolinone] | 6 (≈ 17.6 µM) | 18 (≈ 52.7 µM) |  |

| Molecule | IC50 (HSV-2 (strain MS); [2]) [µg/mL] | CC50 at 24 h [1] [µg/mL] | further results |
| --- | --- | --- | --- |
| CCCCCCn1c(=O)c(C(=O)OCC)c(OC)c2cc(C)ccc21 [Compound 19, 1-hexyl-3-ethoxycarbonyl-4-methoxy-6-methyl-2(1H)-quinolinone] | 7 (≈ 20.3 µM) |  |  |
| CON=Cc1c(OC)c2ccccc2n(Cc2ccccc2)c1=O [Compound 20, 1-Benzyl-3-Methoxyiminomethyl-4-Methoxy-2(1H)-Quinolinone] | 7 (≈ 21.7 µM) |  |  |
| COc1c(Sc2ccccc2)c(=O)n(C)c2ccc(F)cc12 [Compound 22] | 8 (≈ 25.4 µM) | 25 (≈ 79.3 µM) |  |
| CCCCCCn1c(=O)c(C2OCCO2)c(OC)c2cc(C)ccc21 [Compound 23, 1-Hexyl-3-[2-(1,3-dioxolano)]-4-methoxy-6-methyl-2(1H)-Quinolinone] | 9 (≈ 26.1 µM) | > 100 |  |
| CCCCCCn1c(=O)c(C2OCCO2)c(OC)c2ccccc21 [Compound 24] | 10 (≈ 30.2 µM) |  |  |
| COc1c(SC)c(=O)n(Cc2ccc(O)cc2)c2cc(C)c(C)cc12 [Compound 25] | 10 (≈ 28.1 µM) |  |  |
| CCCCCCn1c(=O)c(C=NOC)c(OC)c2cc(C)ccc21 [Compound 26, 1-Hexyl-3-Methoximinomethyl-4-Methoxy-6-Methyl-2(1H)-Quinolinone] | 7 (≈ 21.2 µM) | 27 (≈ 81.7 µM) |  |
| Cc1c(OC(=O)c2ccco2)ccc2c(N)cc(=O)oc12 [Compound 65, 4-Amino-7-(2-Furoyloxy)-8-Methyl-Benzopyran-2-one] |  |  | IC50 (HSV-2 (strain MS); [4]): > 25 µg/mL |
| Cc1c(OC(=O)c2cccs2)ccc2c(N)cc(=O)oc12 [Compound 66, 4-Amino-7-(Thiophene-2-carbonyloxy)-8-Methyl-Benzopyran-2-one] |  |  | IC50 (HSV-2 (strain MS); [4]): > 25 µg/mL |
| Cc1c(OC(=O)c2ccncc2)ccc2c(N)cc(=O)oc12 [Compound 67, 4-Amino-7-Isonicotinoxy-8-Methyl-Benzopyran-2-one] |  |  | IC50 (HSV-2 (strain MS); [4]): 14 µg/mL (≈ 47.3 µM) |
| Cc1c(OC(=O)[C@H](C)NC(=O)OC(C)(C)C)ccc2c(N)cc(=O)oc12 [Compound 71, 4-Amino-7-(BOC-L-Alanyloxy)-8-Methyl-Benzopyran-2-one] |  |  | IC50 (HSV-2 (strain MS); [4]): > 25 µg/mL |
| CC(=O)Oc1c(Sc2ccccc2)c(=O)n(C)c2ccc(F)cc12 [Compound 102] |  |  | IC50 (HSV-2 (strain MS); [5]): 21 µg/mL (≈ 61.2 µM) |
| CCCCCCn1c(=O)c(C(=O)OCC)c(OC(=O)c2cccn2C)c2cc(C)ccc21 [Compound 103] |  |  | IC50 (HSV-2 (strain MS); [5]): 25 µg/mL (≈ 57 µM) |
| C=CCOC(=O)c1c(OC)c2cc(C)ccc2n(CCCCCC)c1=O [Compound 104] |  |  | IC50 (HSV-2 (strain MS); [5]): > 25 µg/mL |
| CCCCCCn1c(=O)c(C(=O)O)c(OC)c2cc(C)ccc21 [Compound 105] |  |  | IC50 (HSV-2 (strain MS); [5]): > 25 µg/mL |
| COc1c(CCO)c(=O)n(C)c2ccccc12 [Compound 106] |  |  | IC50 (HSV-2 (strain MS); [5]): > 25 µg/mL |
| CCOC(=O)c1c(OC)c2ccccc2n(C)c1=O [Compound 107] |  |  | IC50 (HSV-2 (strain MS); [5]): > 25 µg/mL |
